Like-named read-outs stand apart in the source and are kept apart here.
What was measured:
Cell lines = assay: Apoptosis by Annexin V-FITC and PI staining with or without NAC; format: cell-based; details: 500 nM, 48 h
Procedure: FIG. 5: Salinomycine analogue—induced cell death is inhibited by the ROS scavenger N-acetylcysteine (NAC). Cell lines were incubated with or without 500 nM of Sal analogues for 48 h. Apoptosis was evaluated by Annexin V-FITC and PI staining, and FACS analysis. All data are expressed as means±s.d. from three individual experiments (*; P<0.05)
Salinomycine analogue-induced cell death is inhibited by the ROS scavenger N-acetylcysteine (NAC). Cell lines were incubated with or without 500 nM of Sal analogues for 48 h. Apoptosis was evaluated by AnnexinV-FITC and PI staining, and FACS analysis.

HMLE W2 = assay: Cell death IC50, Annexin V-FITC/PI flow cytometry; format: cell-based; details: Homo sapiens, read-out: IC50 HMLE W2
Procedure: (§1) The cells were seeded in a 6-well plate at density 5.105 cells/well and cultured overnight. The cells were then treated with various concentration (15, 30, 100, 500, 1000 and 10.000 nM) of salinomycine, AM5 and AM23 for 72 h, 96 h and 108 h. After treatment, cell death was quantified using Annexin V-FITC/Propidium Iodide (PI) assay according to the manufacturer's protocol (FITC Annexin V Apoptosis Detection Kit II, 556570, BD Pharmingen™) and analyzed by a LSRFortessa™ flow cytometer (BD Bioscience, San Jose, Calif.). The data were processed using Cell Quest software (BD Biosciences). Dose-response cell death curves were determined for indicated time.
(§2) For tumor cells, the cells are classified in function of their sensitivity of drugs. Here, the most sensitive cells are incubated for 72 h, the middle sensitive cells for 96 h and the less sensitive or resistant cells are incubated for 108 h with drug at several concentrations.
(§3) Concentrations of 30 nM, 500 nm and 1 μM were used for determining the IC50 of drugs.
(§4) Intervals][…]] mean that IC50 is included in this interval with exclusion of the valor 30 nM.

HBL100 = assay: Cell death IC50, Annexin V-FITC/PI flow cytometry; format: cell-based; details: Homo sapiens
Procedure: as §1, §2, §3, §4

MDA-MB-361 = assay: Cell death IC50, Annexin V-FITC/PI flow cytometry; format: cell-based; details: Homo sapiens, read-out: IC50 MDA-MB-361
Procedure: as §1, §2, §3, §4

BT549 = assay: Cell death IC50, Annexin V-FITC/PI flow cytometry; format: cell-based; details: Homo sapiens, read-out: IC50 BT549
Procedure: as §1, §2, §3, §4

Zr75.1 = assay: Cell death IC50, Annexin V-FITC/PI flow cytometry; format: cell-based; details: Homo sapiens, read-out: IC50 Zr75.1
Procedure: as §1, §2, §3, §4

T47D = assay: Cell death IC50, Annexin V-FITC/PI flow cytometry; format: cell-based; details: Homo sapiens, Resistant (108 h)
Procedure: as §1, §2, §3, §4

MDA-MD-157 = assay: Cell death IC50, Annexin V-FITC/PI flow cytometry; format: cell-based; details: Homo sapiens, read-out: IC50 MDA-MD-157
Procedure: as §1, §2, §3, §4

MDA-MB-134 = assay: Cell death IC50, Annexin V-FITC/PI flow cytometry; format: cell-based; details: Homo sapiens, read-out: IC50 MDA-MB-134
Procedure: as §1, §2, §3, §4

MCF-7 = assay: Cell death IC50, Annexin V-FITC/PI flow cytometry; format: cell-based; details: Homo sapiens, read-out: IC50 MCF-7
Procedure: as §1, §2, §3, §4

HMLER CD24low = assay: Cell death IC50, Annexin V-FITC/PI flow cytometry; format: cell-based; details: Homo sapiens, read-out: IC50 HMLER CD24low
Procedure: as §1, §2, §3, §4

HMLER ID2 = assay: Cell death IC50, Annexin V-FITC/PI flow cytometry; format: cell-based; details: Homo sapiens, read-out: IC50 HMLER ID2
Procedure: as §1, §2, §3, §4

BT20 = assay: Cell death IC50, Annexin V-FITC/PI flow cytometry; format: cell-based; details: Homo sapiens, read-out: IC50 BT20
Procedure: as §1, §2, §3, §4

HMLER shECAD = assay: Cell death IC50, Annexin V-FITC/PI flow cytometry; format: cell-based; details: Homo sapiens, read-out: IC50 HMLER shECAD
Procedure: as §1, §2, §3, §4

BT474 = assay: Cell death IC50, Annexin V-FITC/PI flow cytometry; format: cell-based; details: Homo sapiens, read-out: IC50 BT474
Procedure: as §1, §2, §3, §4

MDA-MB-231 = assay: Cell death IC50, Annexin V-FITC/PI flow cytometry; format: cell-based; details: Homo sapiens, read-out: IC50 MDA-MB-231
Procedure: as §1, §2, §3, §4

HMLER GFP = assay: Cell death IC50, Annexin V-FITC/PI flow cytometry; format: cell-based; details: Homo sapiens; 1rst sensibility (72 h)
Procedure: as §1, §2, §3, §4

HMLER CD24+ cells = assay: Cell viability assay (CellTiter-Blue), IC50 assessment; format: cell-based; details: Homo sapiens, read-out: IC50 CD24+
Procedure: (§5) FIG. 1 represents viability of HMLER CD24− cells (full line) and HMLER CD24+ cells (dotted line) at different concentration of salinomycine (1A), AM5 […] or AM13 (1D).
(§6) Cell viability assay was carried out by plating 1000 cells per well in 96-well plates. NAC (2 mM, A9165 Sigma) or DFO (1 mM) were pretreated 2 hours prior to the compound treatment. CellTiter-Blue® Reagent (Promega; G3582) (20 μl/well) was added after 24, 48, or 72 hours treatment and cells were incubated for 1 hour before recording fluorescence (560(20)Ex/590(10)Em) using a Perkin Elmer Wallac 1420 Victor2 Microplate Reader.

HMLER CD24− cells [1] = assay: Cell proliferation and formation of mammospheres; format: cell-based, Human
Description: FIG. 2 is a representative phase contrast photomicrographs of mammospheres formed after 11 days in the absence of any added compound (Control) or in the presence of a defined amount of salinomycine, AM5, AM9 or AM13. […] The size of the mammospheres is correlated with progenitor cell proliferation, whereas the number of mammospheres formed after serial passages at clonal density is correlated with the self-renewal capacity of primitive Cancer Stem Cells. […]
FIG. 9 represents images of the third generation of mammospheres formed from individual HMLER CD24low cells treated during 7 days with the indicated drug. The size of the mammospheres is correlated with progenitor cell proliferation capacity, whereas the number of mammospheres formed after serial passages at clonal density is correlated with the self-renewal capacity of primitive Cancer Stem Cells.
AM5, AM9, AM13 and salinomycine were assessed for their capability to inhibit cell proliferation and formation of mammospheres. […]
AM5 and AM23 and salinomycine were assessed for their capability to inhibit cell proliferation and formation of mammospheres.

HMLER CD24− cells [2] = assay: Cell viability assay (CellTiter-Blue), IC50 assessment; format: cell-based, Human; details: for IC50: Homo sapiens, read-out: IC50 CD24−
Procedure: as §5, §6

[3] = third generation of mammospheres, HMLER CD24low cells treated 7 days

For C#CCN[C@@H]1C=C[C@]2(O[C@H]([C@@H](CC)C(=O)[C@@H](C)[C@@H](O)[C@H](C)C3O[C@@H](C(CC)C(=O)O)CC[C@@H]3C)[C@@H](C)C[C@H]2C)O[C@@]12CC[C@@](C)([C@H]1CC[C@](O)(CC)[C@H](C)O1)O2 (some centres unmarked) [AM5, Sal-Propargylamine], the “cell death (apoptosis) mechanism” value (Cell lines) was “induce cell death through lysosomal ROS production”, the IC50 (HMLE W2; Immortalized) was over 1000 nM and the IC50 (HBL100; HBL-100, No tumoral, read-out: IC50 HBL100) was over 1000 nM. The IC50 (MDA-MB-361; MDA-MB-361, 2nd sensibility (96 h)) was 500 nM, the IC50 (BT549; BT-549, Resistant (108 h)) was over 1000 nM and the IC50 (Zr75.1; ZR-75-1, 1rst sensibility (72 h), ]30-500] excludes 30 nM) was 30 to 500 nM. For the same compound, the IC50 (T47D) was over 1000 nM, the IC50 (MDA-MD-157; 2nd sensibility (96 h)) was 500 nM and the IC50 (MDA-MB-134; 2nd sensibility (96 h)) was 30 to 500 nM. The IC50 (MCF-7; MCF7, 1rst sensibility (72 h), ]30-500] excludes 30 nM) was 30 to 500 nM, the IC50 (HMLER CD24low; 1rst sensibility (72 h)) was under 30 nM and the IC50 (HMLER ID2; 1rst sensibility (72 h)) was over 1000 nM. It also gave an IC50 (BT20; BT-20, 3rd sensibility (108 h)) of 30 to 500 nM, an IC50 (HMLER shECAD; 1rst sensibility (72 h)) of 30 to 500 nM and an IC50 (BT474; BT-474, 2nd sensibility (96 h)) of over 1000 nM. The IC50 (MDA-MB-231; MDA-MB-231, 2nd sensibility (96 h)) was over 1000 nM, the IC50 (HMLER GFP) was 1000 nM and the IC50 (HMLER CD24+ cells; HMLER CD24+ cells, cell viability) was 3510 nM. For the same compound, the “inhibition of cell proliferation, efficacy in comparison with salinomycine” value (HMLER CD24− cells [1]; at 30 nM) was “ten-fold improved efficacy”, the “number and size of mammosphere” value (HMLER CD24− cells [1]; mammospheres after 11 days, low nanomolar concentrations) was “reduced the number and the size of mammosphere” and the number of mammospheres (HMLER CD24− cells [1]; [3]) was “reduced the number of mammospheres”. The size of mammospheres (HMLER CD24− cells [1]; [3]) was “do not alter the tumor diameters”, the IC50 (HMLER CD24− cells [2]; HMLER CD24− cells, cell viability) was 84.9 nM and the “activity against CD24 cells compared with salinomycine” value (HMLER CD24− cells [2]; comparison of the IC50 results) was “significantly improved activity”.

With CCC(C(=O)O)[C@H]1CC[C@H](C)C([C@@H](C)[C@H](O)[C@H](C)C(=O)[C@H](CC)[C@H]2O[C@]3(C=C[C@@H](O)[C@]4(CC[C@@](C)([C@H]5CC[C@](O)(CC)[C@H](C)O5)O4)O3)[C@H](C)C[C@@H]2C)O1 (some centres unmarked) [Salinomycine, Salinomycin] the “cell death (apoptosis) mechanism” value (Cell lines) was “induce cell death through lysosomal ROS production”, the IC50 (HMLE W2) was over 1000 nM and the IC50 (HBL100; HBL-100, read-out: IC50 HBL100) was over 1000 nM. It also gave an IC50 (MDA-MB-361; MDA-MB-361, 96 h) of 500 nM, an IC50 (BT549; BT-549, 108 h) of over 1000 nM and an IC50 (Zr75.1; ZR-75-1, 72 h) of 500 nM. For the same compound, the IC50 (T47D) was over 1000 nM, the IC50 (MDA-MD-157; 96 h) was 1000 nM and the IC50 (MDA-MB-134; 96 h) was 30 to 500 nM. It also gave an IC50 (MCF-7; MCF7, 72 h) of 30 to 500 nM, an IC50 (HMLER CD24low; 72 h) of 30 to 500 nM and an IC50 (HMLER ID2; 72 h) of over 1000 nM. It also gave an IC50 (BT20; BT-20, 108 h) of 500 nM, an IC50 (HMLER shECAD; 72 h) of 30 to 500 nM and an IC50 (BT474; BT-474, 96 h) of over 1000 nM. It also gave an IC50 (MDA-MB-231; MDA-MB-231, 96 h) of over 1000 nM, an IC50 (HMLER GFP) of 1000 nM and an IC50 (HMLER CD24+ cells) of 11000 nM. For the same compound, the size of mammospheres (HMLER CD24− cells [1]; [3]) was “do not alter the tumor diameters” and the IC50 (HMLER CD24− cells [2]) was 1560 nM.

From US10287298B2, “Nitrogen-containing analogs of salinomycin, synthesis and use against cancer stem cells and malaria” (Centre National de la Recherche Scientifique (CNRS), priority 2014, dated 2019)
